Assays:
FGFR1 (h) = FGFR1 (h) (Homo sapiens, UniProt P11362); test: FGFR1 (enzymatic assay), TR-FRET; type: biochemical; conditions: 5 μM ATP; read-out: FGFR1 pIC50 (converted)
Protocol: (§1) In a final reaction volume of 30 μL, FGFR1 (h) (25 ng/ml) was incubated with 50 mM HEPES pH 7.5, 6 mM MnCl2, 1 mM DTT, 0.1 mM Na3VO4, 0.01% Triton-X-100, 500 nM Btn-Flt3 and 5 μM ATP in the presence of compound (1% DMSO final). After incubation for 60 minutes at room temperature the reaction was stopped with 2.27 nM EU-anti P-Tyr, 7 mM EDTA, 31.25 nM SA-XL-665 and 0.02% BSA which was present for 60 minutes at room temperature. Time-Resolved Fluorescence Resonance Energy Transfer (TR-FRET) signal (ex340 nm. Em 620 nm, em 655 nm) was measured afterwards and results are expressed in RFU (Relative Fluorescence Units). In this assay, the inhibitory effect of different compound concentrations (range 10 μM to 0.1 nM) was determined and used to calculate an IC50 (M) and pIC50 (−log IC50) value.

FGFR4 (h) = FGFR4 (h) (Homo sapiens, UniProt P22455); test: FGFR4 (enzymatic assay), TR-FRET; type: biochemical; conditions: 5 μM ATP; read-out: FGFR4 pIC50 (converted)
Sequence of FGFR4 (h) (P22455 22-802): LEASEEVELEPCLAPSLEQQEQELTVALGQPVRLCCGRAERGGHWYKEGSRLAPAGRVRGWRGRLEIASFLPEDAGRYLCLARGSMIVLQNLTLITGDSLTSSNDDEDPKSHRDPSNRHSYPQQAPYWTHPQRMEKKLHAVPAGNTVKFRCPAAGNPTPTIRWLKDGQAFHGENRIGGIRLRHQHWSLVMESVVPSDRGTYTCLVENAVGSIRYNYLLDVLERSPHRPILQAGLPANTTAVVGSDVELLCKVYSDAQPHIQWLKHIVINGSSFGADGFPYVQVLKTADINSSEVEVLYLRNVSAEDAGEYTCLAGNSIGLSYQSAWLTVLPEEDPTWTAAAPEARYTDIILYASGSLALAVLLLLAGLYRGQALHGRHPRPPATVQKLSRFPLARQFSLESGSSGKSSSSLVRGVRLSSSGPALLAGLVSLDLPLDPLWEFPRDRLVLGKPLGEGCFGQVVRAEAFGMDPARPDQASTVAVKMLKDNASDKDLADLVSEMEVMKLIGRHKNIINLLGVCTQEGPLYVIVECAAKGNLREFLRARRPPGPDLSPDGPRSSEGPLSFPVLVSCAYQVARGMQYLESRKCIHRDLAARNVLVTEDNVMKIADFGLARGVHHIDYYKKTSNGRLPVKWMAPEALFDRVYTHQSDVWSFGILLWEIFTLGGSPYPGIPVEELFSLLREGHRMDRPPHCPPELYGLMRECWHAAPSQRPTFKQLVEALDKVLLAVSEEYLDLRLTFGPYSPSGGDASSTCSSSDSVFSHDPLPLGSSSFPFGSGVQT
Protocol: as §1, with “FGFR4” for “FGFR1”, “(60” for “(25”

[1] = biological target: T1, Ba/F3-FGFR1-transfected cells (Homo sapiens, UniProt P11362); test: Ba/F3-FGFR1 (minus IL3 or plus IL3) cellular proliferation assay; type: cell-based; conditions: minus IL3
T1 construct: BAF3-FGFR1 (MIN IL3) pIC50; other: minus IL3
T1 sequence (P11362 whole entry, change not shown): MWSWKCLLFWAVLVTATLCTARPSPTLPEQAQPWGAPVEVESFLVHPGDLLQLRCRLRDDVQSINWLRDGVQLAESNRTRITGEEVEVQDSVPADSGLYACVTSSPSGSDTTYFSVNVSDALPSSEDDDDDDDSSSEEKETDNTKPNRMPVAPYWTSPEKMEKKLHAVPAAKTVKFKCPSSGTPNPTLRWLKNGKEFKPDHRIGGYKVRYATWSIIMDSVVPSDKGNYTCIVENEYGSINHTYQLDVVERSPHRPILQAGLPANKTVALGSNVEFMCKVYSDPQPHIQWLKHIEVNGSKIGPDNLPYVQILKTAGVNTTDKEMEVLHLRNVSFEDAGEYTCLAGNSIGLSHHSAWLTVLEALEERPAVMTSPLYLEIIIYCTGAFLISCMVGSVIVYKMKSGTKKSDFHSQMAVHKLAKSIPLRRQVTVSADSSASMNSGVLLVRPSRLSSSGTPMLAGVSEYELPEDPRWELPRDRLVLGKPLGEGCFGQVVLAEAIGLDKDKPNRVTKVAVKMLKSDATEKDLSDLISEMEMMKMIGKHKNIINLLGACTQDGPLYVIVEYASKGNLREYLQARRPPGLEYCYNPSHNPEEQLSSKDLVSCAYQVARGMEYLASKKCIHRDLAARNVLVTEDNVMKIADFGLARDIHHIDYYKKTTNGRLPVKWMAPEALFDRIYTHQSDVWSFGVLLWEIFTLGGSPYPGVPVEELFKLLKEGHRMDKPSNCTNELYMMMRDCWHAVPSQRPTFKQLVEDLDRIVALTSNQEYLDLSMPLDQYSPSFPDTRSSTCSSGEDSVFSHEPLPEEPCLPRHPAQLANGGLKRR
Protocol: (§2) Ba/F3-FGFR1 (Minus IL3 or Plus IL3) (Cellular Proliferation Assay)
(§3) In a 384 well plate, 100 nl of compound dilution in DMSO was sprayed before adding 50 μl cell culture medium (phenol red free RPMI-1640, 10% FBS, 2 mM L-Glutamine and 50 μg/ml Gentamycin) containing 20000 cells per well of Ba/F3-FGFR1-transfected cells. Cells were put in an incubator at 37° C. and 5% CO2. After 24 hours, 10 μl of Alamar Blue solution (0.5 mM K3Fe(CN)6, 0.5 mM K4Fe(CN)6, 0.15 mM Resazurin and 100 mM Phosphate Buffer) was added to the wells, incubated for 4 hours at 37° C. and 5% CO2 before RFU's (Relative Fluorescence Units) (ex. 540 nm., em. 590 nm.) were measured in a fluororescence plate reader.
(§4) In this assay, the inhibitory effect of different compound concentrations (range 10 μM to 0.1 nM) was determined and used to calculate an IC50 (M) and pIC50 (−log IC50) value.
(§5) As a counterscreen the same experiment was performed in the presence of 10 ng/ml murine IL3.

[2] = test system: Ba/F3-FGFR1-transfected cells; test: as above; type: cell-based; conditions: 24 h; plus 10 ng/ml murine IL3 (counterscreen); read-out: BAF3-FGFR1 (PLUS IL3) pIC50 (converted)
Protocol: as §2, §3, §4, §5

[3] = biological target: T2, Ba/F3-FGFR3-transfected cells (Homo sapiens, UniProt P22607); test: Ba/F3-FGFR3 (minus IL3 or plus IL3) cellular proliferation assay; type: cell-based; conditions: minus IL3
T2 construct: BAF3-FGFR3 (MIN IL3) pIC50; other: minus IL3
T2 sequence (P22607 whole entry, change not shown): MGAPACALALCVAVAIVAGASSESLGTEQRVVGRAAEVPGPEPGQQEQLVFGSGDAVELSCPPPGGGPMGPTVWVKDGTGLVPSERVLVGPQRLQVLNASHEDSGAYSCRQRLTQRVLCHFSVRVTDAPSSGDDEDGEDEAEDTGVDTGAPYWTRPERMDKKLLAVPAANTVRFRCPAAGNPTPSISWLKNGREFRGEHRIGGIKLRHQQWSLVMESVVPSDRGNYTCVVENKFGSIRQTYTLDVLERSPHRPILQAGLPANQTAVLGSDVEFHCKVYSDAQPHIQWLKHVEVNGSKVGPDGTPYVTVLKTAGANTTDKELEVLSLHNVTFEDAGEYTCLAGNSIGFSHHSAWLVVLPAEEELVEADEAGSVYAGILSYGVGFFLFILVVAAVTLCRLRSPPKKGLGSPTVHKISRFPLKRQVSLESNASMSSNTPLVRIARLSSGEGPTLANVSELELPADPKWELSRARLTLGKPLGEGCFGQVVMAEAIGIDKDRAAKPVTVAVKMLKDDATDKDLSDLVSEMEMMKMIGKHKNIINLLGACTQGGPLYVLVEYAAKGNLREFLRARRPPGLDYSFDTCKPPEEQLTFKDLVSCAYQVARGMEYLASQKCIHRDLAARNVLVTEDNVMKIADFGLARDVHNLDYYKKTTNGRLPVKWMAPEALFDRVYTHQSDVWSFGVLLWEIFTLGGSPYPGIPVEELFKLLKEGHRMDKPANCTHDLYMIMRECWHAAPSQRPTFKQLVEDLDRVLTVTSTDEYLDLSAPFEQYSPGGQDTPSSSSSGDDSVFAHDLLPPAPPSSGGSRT
Protocol: (§6) Ba/F3-FGFR3 (Minus IL3 or Plus IL3) (Cellular Proliferation Assay)
as §3, with “nI” for “nl”, “Ba/F3-FGFR3-transfected” for “Ba/F3-FGFR1-transfected”
(§7) In this assay, the inhibitory effect of different compound concentrations (range 10 μM to 0.1 nM) was determined and used to calculate an IC50 (M) and pIC50 (−log IC50) value. As a counterscreen the same experiment was performed in the presence of 10 ng/ml murine IL3.

[4] = test system: Ba/F3-FGFR3-transfected cells; test: as above; type: cell-based; conditions: 24 h; plus 10 ng/ml murine IL3 (counterscreen); read-out: BAF3-FGFR3 (PLUS IL3) pIC50 (converted)
Protocol: as §6
as §3, with “nI” for “nl”, “Ba/F3-FGFR3-transfected” for “Ba/F3-FGFR1-transfected”
as §7

[5] = biological target: T3, Ba/F3-KDR-transfected cells (Homo sapiens, UniProt P35968); test: Ba/F3-KDR (minus IL3 or plus IL3) cellular proliferation assay; type: cell-based; conditions: minus IL3
T3 construct: BAF3-KDR (MIN IL3) pIC50; other: minus IL3
T3 sequence (P35968 whole entry, change not shown): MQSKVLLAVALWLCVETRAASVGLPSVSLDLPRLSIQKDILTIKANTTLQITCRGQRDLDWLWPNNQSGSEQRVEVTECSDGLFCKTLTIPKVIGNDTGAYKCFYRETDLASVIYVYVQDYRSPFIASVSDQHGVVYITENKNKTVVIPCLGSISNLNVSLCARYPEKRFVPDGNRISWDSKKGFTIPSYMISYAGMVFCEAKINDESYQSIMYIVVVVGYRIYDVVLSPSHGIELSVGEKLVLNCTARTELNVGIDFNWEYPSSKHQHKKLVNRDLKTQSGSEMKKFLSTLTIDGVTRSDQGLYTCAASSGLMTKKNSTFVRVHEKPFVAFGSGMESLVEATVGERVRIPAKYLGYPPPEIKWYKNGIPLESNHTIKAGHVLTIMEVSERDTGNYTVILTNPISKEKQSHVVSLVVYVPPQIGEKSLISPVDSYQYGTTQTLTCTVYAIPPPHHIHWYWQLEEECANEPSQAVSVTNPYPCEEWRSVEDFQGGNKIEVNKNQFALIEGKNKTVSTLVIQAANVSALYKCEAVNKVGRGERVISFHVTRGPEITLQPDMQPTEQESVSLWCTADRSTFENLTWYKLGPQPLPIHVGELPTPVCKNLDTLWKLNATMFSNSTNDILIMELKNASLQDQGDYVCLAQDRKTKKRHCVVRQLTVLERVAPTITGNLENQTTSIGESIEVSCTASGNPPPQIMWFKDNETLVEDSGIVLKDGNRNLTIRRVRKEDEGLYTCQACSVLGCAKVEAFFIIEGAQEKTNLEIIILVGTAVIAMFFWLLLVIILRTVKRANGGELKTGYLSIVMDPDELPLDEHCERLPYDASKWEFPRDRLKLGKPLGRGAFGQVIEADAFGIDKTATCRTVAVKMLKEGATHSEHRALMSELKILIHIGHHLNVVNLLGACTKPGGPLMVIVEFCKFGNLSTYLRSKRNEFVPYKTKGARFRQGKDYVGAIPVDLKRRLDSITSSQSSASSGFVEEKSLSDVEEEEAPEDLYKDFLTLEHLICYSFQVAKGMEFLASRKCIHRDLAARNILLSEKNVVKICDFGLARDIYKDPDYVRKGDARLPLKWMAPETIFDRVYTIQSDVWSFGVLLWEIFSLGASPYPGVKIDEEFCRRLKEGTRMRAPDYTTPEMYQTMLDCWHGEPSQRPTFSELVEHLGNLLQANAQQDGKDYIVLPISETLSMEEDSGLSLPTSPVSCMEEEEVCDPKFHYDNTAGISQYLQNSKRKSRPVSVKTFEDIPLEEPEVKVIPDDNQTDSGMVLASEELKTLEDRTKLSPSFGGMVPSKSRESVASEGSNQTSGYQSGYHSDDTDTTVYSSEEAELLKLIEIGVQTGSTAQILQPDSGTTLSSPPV
Protocol: (§8) Ba/F3-KDR (Minus IL3 or Plus IL3) (Cellular Proliferation Assay)
as §3, with “nI” for “nl”, “Ba/F3-KDR-transfected” for “Ba/F3-FGFR1-transfected”
as §7

[6] = test system: Ba/F3-KDR-transfected cells; test: as above; type: cell-based; conditions: 24 h; plus 10 ng/ml murine IL3 (counterscreen); read-out: BAF3-KDR (PLUS IL3) pIC50 (converted)
Protocol: as §8
as §3, with “nI” for “nl”, “Ba/F3-KDR-transfected” for “Ba/F3-FGFR1-transfected”
as §7

Sequence of FGFR1 (h) (P11362 22-822): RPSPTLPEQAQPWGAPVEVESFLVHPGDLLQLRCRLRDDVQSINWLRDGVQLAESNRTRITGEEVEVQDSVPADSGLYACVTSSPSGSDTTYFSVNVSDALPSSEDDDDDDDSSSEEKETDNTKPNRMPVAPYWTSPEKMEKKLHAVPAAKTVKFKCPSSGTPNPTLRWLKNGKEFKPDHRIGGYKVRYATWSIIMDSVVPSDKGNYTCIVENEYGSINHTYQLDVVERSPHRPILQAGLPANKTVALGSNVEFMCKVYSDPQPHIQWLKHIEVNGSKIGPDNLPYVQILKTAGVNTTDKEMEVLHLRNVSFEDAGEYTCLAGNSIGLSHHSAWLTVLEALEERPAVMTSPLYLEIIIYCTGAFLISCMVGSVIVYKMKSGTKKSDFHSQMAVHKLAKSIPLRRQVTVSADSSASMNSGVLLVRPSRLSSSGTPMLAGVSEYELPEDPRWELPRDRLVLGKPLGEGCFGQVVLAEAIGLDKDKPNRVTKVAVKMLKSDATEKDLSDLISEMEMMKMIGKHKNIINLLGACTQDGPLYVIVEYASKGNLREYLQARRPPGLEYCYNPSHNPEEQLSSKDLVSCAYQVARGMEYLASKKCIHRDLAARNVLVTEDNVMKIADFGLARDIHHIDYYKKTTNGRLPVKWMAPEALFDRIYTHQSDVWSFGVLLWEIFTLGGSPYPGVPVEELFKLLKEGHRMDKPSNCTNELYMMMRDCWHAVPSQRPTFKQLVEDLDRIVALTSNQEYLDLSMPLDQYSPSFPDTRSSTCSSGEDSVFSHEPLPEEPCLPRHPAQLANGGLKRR

SMILES | IC50 (FGFR1 (h)) [nM] | IC50 (FGFR4 (h)) [nM] | BAF3-FGFR1 (MIN IL3) pIC50 [1] | BAF3-FGFR3 (MIN IL3) pIC50 [3] | BAF3-KDR (MIN IL3) pIC50 [5] | IC50 [2] [nM] | IC50 [4] [nM] | IC50 [6] [nM]
COc1cc(OC)cc(/C(=C\CN(C)C)c2ccc3ncc(-c4cnn(C)c4)nc3c2)c1 [Compound 10, {(Z)-3-(3,5-Dimethoxy-phenyl)-3-[3-(1-methyl-1H-pyrazol-4-yl)-quinoxalin-6-yl]-allyl}-dimethyl-amine] | 17 | 107 | 5.81 | 6.27 | <5 | > 10000 | > 10000 | > 10000
COc1cc(OC)cc(/C(=C\CNCC(F)(F)F)c2ccc3ncc(-c4cnn(C)c4)nc3c2)c1 [Compound 14, {(Z)-3-(3,5-Dimethoxy-phenyl)-3-[3-(1-methyl-1H-pyrazol-4-yl)-quinoxalin-6-yl]-allyl}-(2,2,2-trifluoro-ethyl)-amine] | 13.8 | 28.8 | 6.17 | 6.39 | <5 | > 10000 | > 10000 | > 10000
COc1cc(OC)cc(C(CC(=O)NC(C)C)c2ccc3ncc(-c4cnn(C)c4)nc3c2)c1 (stereo not drawn) [Compound 23] | > 1000 | > 1000 | <5 | <5 | <5 | > 10000 | > 10000 | > 10000
COc1cc(OC)cc(C(CC(C)(O)CNC(C)C)c2ccc3ncc(-c4cnn(C)c4)nc3c2)c1.Cl (stereo not drawn) [Compound 25] | 794 | > 1000 | <5 | 5.13 | <5 | > 10000 | > 10000 | > 10000
Cn1cc(-c2cnc3ccc(C(O)c4ccccc4)cc3n2)cn1 (stereo not drawn) [Compound 28] | ~1510 | 8510 | <5 | <5 | <5 | > 10000 | > 10000 | > 10000
COc1cc(OC)cc(C(CCNC(C)C)c2ccc3ncc(-c4cnn(C)c4)nc3c2)c1.Cl (stereo not drawn) [Compound 29, {3-(3,5-Dimethoxy-phenyl)-3-[3-(1-methyl-1H-pyrazol-4-yl)-quinoxalin-6-yl]-propyl}-isopropyl-amine] | 22.9 | 275 | 6.18 | 6.44 | <5 | > 10000 | > 10000 | > 10000
COc1cc(OC)cc(C2(c3ccc4ncc(-c5cnn(C)c5)nc4c3)CC2)c1 [Compound 30] | 91.2 | 479 | 5.23 | 5.63 | <5 | > 10000 | > 10000 | > 10000
COc1cc(OC)cc(C(CCNCC(F)(F)F)c2ccc3ncc(-c4cnn(C)c4)nc3c2)c1.Cl (stereo not drawn) [Compound 33] | 224 | ~1000 | 5.11 | ~5.11 | <5 | > 10000 | > 10000 | > 10000
COc1cc(OC)cc(/C(=C/CN(C)C)c2ccc3ncc(-c4cnn(C)c4)nc3c2)c1 [Compound 34] | 132 | > 1000 | 5.08 | ~5.13 | <5 | > 10000 | > 10000 | > 10000
CN(C)CCC(c1ccccc1)c1ccc2ncc(-c3cnn(C)c3)nc2c1 (stereo not drawn) [Compound 35] | > 1000 | > 1000 | <5 | <5 | <5 | > 10000 | > 10000 | > 10000

More lines, main results first:

IC50 (FGFR1 (h)) [nM] | IC50 (FGFR4 (h)) [nM] | BAF3-FGFR1 (MIN IL3) pIC50 [1] | BAF3-FGFR3 (MIN IL3) pIC50 [3] | BAF3-KDR (MIN IL3) pIC50 [5] | SMILES | IC50 [2] [nM] | IC50 [4] [nM] | IC50 [6] [nM]
72.4 | 182 | 5.6 | 5.48 | <5 | COc1cc(OC)cc(C(CC#N)c2ccc3ncc(-c4cnn(C)c4)nc3c2)c1 (stereo not drawn) [Compound 18] | > 10000 | > 10000 | > 10000
77.6 | 447 | 5.86 | 6.04 | <5 | COc1cc(OC)cc(C(CCN)c2ccc3ncc(-c4cnn(C)c4)nc3c2)c1.Cl (stereo not drawn) [Compound 20] | > 10000 | > 10000 | > 10000
37.2 | 355 | 5.95 | 6.32 | <5 | COc1cc(OC)cc(C(CCN(C)C)c2ccc3ncc(-c4cnn(C)c4)nc3c2)c1.Cl (stereo not drawn) [Compound 21] | > 10000 | > 10000 | > 10000
107 | 513 | 5.66 | 5.65 | <5 | COc1cc(OC)cc(C(CCO)c2ccc3ncc(-c4cnn(C)c4)nc3c2)c1 (stereo not drawn) [Compound 22] | > 10000 | > 10000 | > 10000
490 | > 1000 | 5 | 5.27 | <5 | COc1cc(OC)cc(C(CCCN)c2ccc3ncc(-c4cnn(C)c4)nc3c2)c1.Cl (stereo not drawn) [Compound 40] | > 10000 | > 10000 | > 10000

Reference: patent US9290478B2, “Substituted quinoxalines as FGFR kinase inhibitors” (ASTEX THERAPEUTICS LTD, priority 2010, dated 2016)
